Results on three compounds are retold here after patent US7485759B2, “Minimization of ligand degradation products, or reversion of same to useful phosphine ligands” (Dow Technology Investments LLC, priority 2003, dated 2009).

Data set [1] is described as follows: Hydrocarbonylation of 2-pentenal with different ligands; ligand converted to phosphonium ion ligand degradation product by 31P-NMR (Example 4). Type of data set: physicochemical. To be noted: ligand converted to phosphonium ion degradation product as percentage of total ligand; 3 hours, 70° C., 300 psig CO, 600 psig H2, 1570 ppm Rh, 4.6 mol ligand/mol Rh, 2-pentenal in 1-butanol. On the procedure:
In a series of hydroformylation reactions (4A-D) 2-pentenal (50 mmols) was subjected to hydrocarbonylation conditions for 3 hours using a rhodium catalyst promoted with a variety of ligands having different cone angles and pKa's. Hydrocarbonylation conditions included: 70° C., 300 psig (2,068 kPa) carbon monoxide, 600 psig (4,136 kPa) hydrogen, 1570 ppm Rh, 4.6 mol ligand/mol Rh, and 40 wt % initial 2-pentenal in 1-butanol solvent. The source of Rh was Rh4(CO)12. During the course of the reaction 2-pentenal was hydrogenated to valeraldehyde and then to pentanol. After the reaction was completed, the reaction fluid was examined by P^31-NMR spectroscopy to determine the amount of ligand converted to phosphonium ion ligand degradation product, as a percentage of the total ligand in solution.

Data set [2] can be described thus: Ligand basicity measured by pKa. Type of data set: physicochemical. To be noted: est = estimated value. On the procedure: Basicity (electronic effect) measures the reactivity of a ligand towards a proton. Ligands with lower attraction to binding a proton are less basic, and therefore, generally of lower nucleophilicity. […] Generally, basicity is measured by pKa, known to those of skill in the art, as described in Organometallics, (1989) 8(1), 1, and by Wm. A. Henderson, Jr. and C. A. Streuli, Journal of the American Chemical Society, (1960), 82, 5791-5794, and by Tim Allman, et al., Canadian Journal of Chemistry (1982), 60(6), 716-722, all references incorporated herein by reference. Ligands having a pKa typically of less than about 8.3 provide for reduced formation of phosphonium ion ligand degradation products.

For data set [3] the following is noted: cited from earlier work.
Data set [4] in a line: Batch hydrocarbonylation of 1,3-butadiene; phosphonium salts followed by 31P-NMR and ligand usage (Examples 1-3). It is filed as physicochemical. On the procedure: A batch hydrocarbonylation of 1,3-butadiene (BD) to pentenols was conducted at the following conditions: 70° C., 300 psig (2,068 kPa) carbon monoxide, 600 psig (4,136 kPa) hydrogen, 1570 ppm Rh, 4.6 mol ligand/mol Rh, and 40 wt % initial BD in 1-butanol solvent. Trioctylphosphine was used as ligand, and the Rh source was Rh4(CO)12. Multiple samples were taken from the reactor and analyzed by phosphorus-31 nuclear magnetic resonance spectroscopy (^31P-NMR) to follow the concentration of phosphonium ion ligand degradation products (phosphonium salts) with time. The concentration of phosphonium salts increased between t=0 and t=60 min, and their concentration reached a maximum of 0.008 mol/L at t=60 min. […] The concentration of 2-pentenal (α,β-unsaturated aldehyde) also reached a maximum at 60 min.
The BD conversion at the time when the concentrations of phosphonium salts and α,β-unsaturated aldehyde were at their maximum was 39%. Had the reaction been stopped at 39% conversion of BD, the ligand usage (lost) to phosphonium salts would have been 65 g/L/day. However, the reaction was continued until 480 minutes to allow for the 2-pentenal to react away under normal reaction conditions. […] The BD conversion at t=480 min was 98%. When the reaction was stopped at 98% BD conversion, the ligand usage (lost) to phosphonium salts was less than 1 g/L/day.
A batch hydrocarbonylation of 1,3-butadiene (BD) was conducted to partial conversion followed by stripping of the reaction product solution with hydrogen to hydrogenate residual α,β-unsaturated aldehyde (2-pentenal). The batch hydrocarbonylation was conducted at the following conditions: 70° C., 300 psig (2,068 kPa) carbon monoxide, 600 psig (4,136 kPa) hydrogen, 1590 ppm Rh, 4.5 mol ligand/mol Rh, and 40 wt % initial BD in 1-butanol solvent. The ligand used was trioctylphosphine, and the Rh source was Rh4(CO)12. The reaction was conducted for 130 minutes and reached 67% conversion BD. At that time, the concentration of phosphonium salts and α,β-unsaturated aldehyde (2-pentenal) were both about 0.006 mol/L. If no attempt had been made to revert the phosphonium salts at this point, the ligand usage (lost) to phosphonium salts would have been 25 g/L/day. The reactor was vented down to atmospheric pressure to remove most of the syn-gas (CO+H2). The reactor was then re-pressurized back to 900 psig (6,205 kPa) with pure hydrogen. […] Hydrogen was continuously sparged through the reactor at a rate of 0.5 standard cubic feet per hour (SCFH) during the time when the reactor was at 120° C. and 900 psig (6,205 kPa). After 10 minutes of stripping with hydrogen, all phosphonium salts were undetectable by ^31P-NMR, and the α,β-unsaturated aldehyde was undetectable by gas chromatography. The concentration of both of these species remained at essentially “0” for the remainder of the experiment. The ligand usage (loss to phosphonium salts) was reduced from 25 g/L/day to less than 1 g/L/day by reverting the phosphonium salts by hydrogenating the residual α,β-unsaturated aldehyde with hydrogen.
A batch hydrocarbonylation of 1,3-butadiene (BD) was conducted to partial conversion followed by stripping of the reaction product solution with nitrogen to remove residual α,β-unsaturated aldehyde (2-pentenal) by volatilization at […]. The batch hydrocarbonylation was conducted at the following conditions: 70° C., 300 psig (2,068 kPa) carbon monoxide, 600 psig (4,136 kPa) hydrogen, 1590 ppm Rh, 4.6 mol ligand/mol Rh, and 40 wt % initial BD in 1-butanol solvent. The ligand used was trioctylphosphine, and the Rh source was Rh4(CO)12. The reaction was conducted for 120 minutes and reached 72% conversion of BD. At that time, the concentration of phosphonium salts and α,β-unsaturated aldehyde were about 0.005 and 0.016 mol/L, respectively. If no attempt had been made to revert the phosphonium salts at this point, the ligand usage (lost) to phosphonium salts would have been about 20 g/L/day. […]

Read-outs that look alike come from different tables or passages of the source.

Consider `CCCCP(CCCC)C1CCCCC1` [Cyclohexyldi-n-butylphosphine], for which the “% Phosphonium Salt (by wt.)” value in data set [1] came to 9.8%. For the same compound, the pKa in data set [2] is approximately 8.9.

Take `CC(C)CP(CC(C)C)CC(C)C` [Tri-isobutylphosphine]: the “% Phosphonium Salt (by wt.)” value in data set [1] was 0.3%. Moreover, the PKa in data set [3] is recorded as 7.97; in data set [3] (listed as tri-isobutylphosphine), “less than 8.3”.

Consider `CCCCCCCCP(CCCCCCCC)CCCCCCCC` [tri-n-octylphosphine], for which the “ligand usage (lost) to phosphonium salts” value in data set [4] (Example 1, had the reaction been stopped at 39% conversion of BD) was 65 g/L/day; in data set [4] (Example 1, reaction stopped at 98% BD conversion), “less than 1 g/L/day”; in data set [4] (Example 2, 67% conversion BD, if no attempt made to revert), 25 g/L/day; in data set [4] (Example 3, 72% conversion of BD, if no attempt made to revert), “about 20 g/L/day”. Further, the “concentration of phosphonium salts” value in data set [4] (Example 1, maximum at t=60 min, 39% BD conversion, 70° C.) was 0.008 mol/L; in data set [4] (Example 1, t=480 min, 98% BD conversion), 0.0005 mol/L; in data set [4] (Example 2, 130 minutes, 67% conversion BD, before reversion) it was “about 0.006 mol/L”; in data set [4] (Example 3, 120 minutes, 72% conversion of BD, before reversion) it was “about 0.005 mol/L”; in data set [4] (Example 3, after 20 minutes of stripping with nitrogen, 120° C., 900 psig), 0.0005 mol/L. Also, the “phosphonium salts by 31P-NMR” value in data set [4] (Example 2, after 10 minutes of stripping with hydrogen, 120° C., 900 psig) was “undetectable”. Also, the “ligand usage (loss to phosphonium salts)” value is “less than 1 g/L/day” in data set [4] (Example 2, after reversion with hydrogen) and 2 g/L/day in data set [4] (Example 3, after stripping with nitrogen). Moreover, the pKa in data set [2] is not below 8.3.

For orientation: pKa means the negative logarithm of the acid dissociation constant.
